{"source": "patent US20250241838A1", "about": "“COSMETIC COMPOSITION FOR WITH ANTI-GLYCATION EFFECT FOR ENHANCING SKIN RESISTANCE TO AGING” (L'OREAL, priority 2024, published 2025)", "tested_on": "BSA (bovine serum albumin)", "assay": "In vitro/in tubo glycation study: BSA + D-ribose, fluorescence intensity", "assay_type": "biochemical", "description": "A study was conducted in vitro/in tubo to evaluate if the ingredients of the inventive composition have anti-glycation effects in an in tubo environment.\nThe in tubo experiments were conducted to evaluate glycation of BSA (bovine serum albumin) under control conditions and with exposure to an embodiment of the inventive composition. Samples were prepared, including inventives, comparatives, baseline, and positive and negative controls.\nA test plate was prepared with discrete wells for receiving each of the test compositions. Solutions representing the active ingredient concentrations listed under “Ingredient” in Table 3, below, were added to a well containing BSA+D-ribose (the Indicator Solution) and PBS. The total amount of Test Solutions added for the inventive compositions was always the same for all tests-25 microliters-5 microliters of each Test Solution (Ingredient) per well. PBS was used as the solvent for the Test Solution. Plates were prepared in triplicate.\nTested Compositions: Blank: PBS+BSA, Negative control: PBS+BSA+D-ribose, Positive control: PBS+BSA+D-ribose+Aminoguanidine, Five Inventive […]\nSamples were plated in triplicate and readings taken at the indicated wavelength at day 1 and day 14.\nEvaluations of Fluorescent Intensity were made at ex 370 nm/em 440 nm\nSamples were evaluated at time intervals of 0 days, 3 days, 14 Days, 21 Days. The main purpose of incorporating time intervals is to provide sufficient duration for capturing the anti-glycation effect. It is crucial to build in multiple time points to adequately capture the anti-glycation effects since they can vary depending on the specific ingredients used.\nMagnitude of fluorescence intensity is positively indicative of extent of glycation. Glycation is expected to be maximal with negative control (BSA plus D-ribose), while glycation of positive control with known antiglycation agent, Aminoguanidine, is expected to be reduced relative to negative control.\nEvaluation of anti-glycation effect of individual ingredients: each of Activated C, Dandelion Extract, Caffeine, Lavender Oil, and Vitamin E (5 microliter quantities) were plated with 245 microliter of [PBS+BSA+D-ribose]. Concentrations of each ingredient added to the wells were as follows Activated C (100%, 50%, 10%, 5% and 1%), Dandelion Extract (100%, 50%, 30%, 15% and 3%), Caffeine (2%, 1.5%, 1%, 0.5% and 0.1%), Lavender Oil (100%, 50%, 0.15%, 0.08% and 0.15%), and Vitamin E (100%, 50%, 1%, 0.5% and 0.1%).", "key": {"[1]": {"conditions": "each ingredient alone, 5 microliter plated with 245 microliter PBS+BSA+D-ribose, five concentrations each, data not shown"}}, "note": "“Also recorded” adds a separate entry of the source. Read-outs that look alike come from different tables or passages of the source."}
{"compound": "CCOC1=C(O)C(=O)O[C@@H]1[C@@H](O)CO", "note": "[Activated C, 3-O-ETHYL ASCORBIC ACID]", "values": [{"measurement": "anti-glycation effect of individual ingredients", "setting": "[1]", "result": "glycation effect only at high levels"}, {"measurement": "anti-glycation effect of individual ingredients", "setting": "each ingredient alone, 5 microliter plated with 245 microliter PBS+BSA+D-ribose, five concentrations each, data not shown, listed as Ascorbic acid", "result": "reduction of glycation at high doses only"}]}
{"compound": "Cn1c(=O)c2c(ncn2C)n(C)c1=O", "note": "[Caffeine]", "values": [{"measurement": "anti-glycation effect of individual ingredients", "result": "no glycation effect; also recorded: no significant reduction in glycation"}]}
{"compound": "N=C(N)NN", "note": "[Positive control, Aminoguanidine]", "values": [{"measurement": "Fluorescence intensity", "setting": "day 14 readings, ex 370 nm/em 440 nm, PBS+BSA+D-ribose, intensity positively indicative of extent of glycation", "result": 2.921}, {"measurement": "Percent reduction in glycation (%)", "setting": "day 14 readings, relative to negative control (PBS+BSA+D-ribose)", "result": 23, "unit": "%"}]}
{"compound": "tocopherol [Vitamin E]", "values": [{"measurement": "anti-glycation effect of individual ingredients", "setting": "[1]", "result": "no glycation effect"}, {"measurement": "anti-glycation effect of individual ingredients", "setting": "each ingredient alone, 5 microliter plated with 245 microliter PBS+BSA+D-ribose, five concentrations each, data not shown, listed as vitamin E", "result": "no significant reduction in glycation"}]}
